The text below walks through data of patent publication US20250000835A1, “SYNERGIES OF 1- BETA-CARYOPHYLLENE, CANNABIDIOL AND TRIBUTYRIN; 2- RETINYL PALMITATE, BETA-CARYOPHYLLENE AND CANNABIDIOL; 3- RETINYL PALMITATE AND BETA-CARYOPHYLLENE IN CONTROLING INFLAMMATION, METABOLIC HEALTH, INSULIN SENSITIVITY/ GLYCEMIC - GLUCOSE UPTAKE & MANAGEMENT, AND FATTY LIVER/ NAFLD” (FLG Sciences, LLC, priority 2022, published 2025).

Common to all, as to type: cell-based
Test [1] deals with C2C12 myotubes (muscle cells). Nature of the test: Cellular glucose levels, colorimetric glucose oxidase assay, C2C12 muscle cells. The following applies: 12 h treatment with TNF-alpha (15 ng/mL), vs DMSO control. Here is the method: (§1) There were two different treatment experiments including: Cells treated with compounds 1-5 above for 3 hours; Cells treated with compounds 1-5 above for 12 hours with a concomitant TNF-alpha treatment (15 ng/mL); Cell treatments were performed using C2C12 myotubes (muscle cells), and AML-12 cells (liver cells).
(§2) There are also combination formulations, where the following combination formulations were tested: 6) Control or “vehicle” (DMSO only); 7) Vitamin A, or “VitA” (1.2 μM)+Beta-caryophyllene (100 ng/mL)+Tributyrin (10 μM); 8) Vitamin A, or “VitA” (1.2 μM)+Beta-caryophyllene (100 ng/mL)+CBD (95 ng/ml); 9) Beta-caryophyllene (100 ng/mL)+CBD (95 ng/mL)+Tributyrin (10 μM); 10) Vitamin A, or “VitA” (1.2 μM)+Beta-caryophyllene (100 ng/mL).
(§3) As with single ingredients, two different treatment experiments occurred with these combos including: Cells treated with compounds 1-5 above for 3 hours. Cells treated with compounds 1-5 above for 12 hours with a concomitant TNF-alpha treatment (15 ng/ml)
(§4) All cells were grown to confluence using cell-specific media and additives.
(§5) The day of treatment, culture media was spiked with the appropriate ingredients (these are termed “treatment media”) […]

The target in test [2] is T1, PPARγ (Mus musculus, UniProt P37238).
T1 construct: endogenous in cells; host or cells: C2C12 myotubes (muscle cells)
T1 sequence (P37238 1-505): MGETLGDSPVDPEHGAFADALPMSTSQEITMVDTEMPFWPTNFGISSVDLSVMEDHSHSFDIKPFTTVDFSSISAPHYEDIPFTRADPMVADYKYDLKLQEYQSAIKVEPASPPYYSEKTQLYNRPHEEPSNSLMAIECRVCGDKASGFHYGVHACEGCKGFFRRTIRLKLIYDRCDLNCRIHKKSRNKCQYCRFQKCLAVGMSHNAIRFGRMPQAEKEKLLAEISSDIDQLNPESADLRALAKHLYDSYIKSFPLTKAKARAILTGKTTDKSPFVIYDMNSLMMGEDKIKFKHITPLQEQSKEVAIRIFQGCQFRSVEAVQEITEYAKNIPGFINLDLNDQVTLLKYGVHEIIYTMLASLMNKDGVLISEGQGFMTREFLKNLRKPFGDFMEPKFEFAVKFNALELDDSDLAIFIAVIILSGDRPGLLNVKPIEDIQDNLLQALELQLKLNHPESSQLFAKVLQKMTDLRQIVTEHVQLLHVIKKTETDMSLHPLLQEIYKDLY
In words: PPARγ DNA binding activity, AML-12 liver cells. The following applies: vs DMSO control. Here is the method: as §1, §2, §3, §4
(§6) The day of treatment, culture media was spiked with the appropriate ingredients (these are termed “treatment media”)
(§7) After either the 3-h or 12-h treatments described above, treatment media was removed, cells were rinsed with 1× phosphate-buffered saline, and general cell lysis buffer (Tris-based with detergent) was used to lyse cells
(§8) Cells were scraped off the plate with a rubber policeman in the lysis buffer, the slurry was placed in 1.7 mL tubes, and lysates were frozen at −80° C. until the respective assays discussed below.
(§9) There are n=5-6 replicates per treatment condition.
(§10) PPARγ DNA binding activity was assessed using a plate that was pre-coated with a PPAR-gamma consensus binding sequence. Thereafter, antibody-based methods were used to assess the amount of bound transcription factor, and data were normalized to total protein loaded in the assay.

In test [3] the target is T1, PPARγ. Nature of the test: PPARγ DNA binding activity, C2C12 muscle cells. To be noted: vs DMSO control. Here is the method: as §1, §2, §3, §4, §6, §7, §8, §9, §10
For the next test, the system named is SOD2. Nature of the test: SOD2 protein levels by Western blotting, C2C12 muscle cells. The following applies: 3 h and 12 h with TNF-alpha, treatment not told apart in text, vs DMSO control. How it is done:
as §1, §2, §3, §4, §5
For orientation: A western blot detects proteins with antibodies after separation by electrophoresis.

The test system of test [4] is AML-12 liver cells. In words: Cellular glucose levels, colorimetric glucose oxidase assay, AML-12 liver cells. The following applies: 12 h treatment with TNF-alpha (15 ng/mL), vs DMSO control. How it is done: as §1, §2, §3, §4, §5
Another test relates to phosphorylated p65/NF-κB. In words: Inflammatory signaling (phosphorylated NF-kB) by Western blotting, C2C12 muscle cells. To be noted: vs DMSO control. How it is done: as §1, §2, §3, §4, §6, §7, §8, §9
SOD2, SOD1, phosphorylated p65/NF-κB, pro-caspase 1, and NLRP3 were assayed using Western blotting methods.

The test system of test [5] is C2C12 myotubes (muscle cells). Nature of the test: Cellular antioxidant (AOx) capacity, Cu2+ ion conversion assay, C2C12 muscle cells. To be noted: vs DMSO control. Here is the method: as §1, §2, §3, §4, §5
(§11) Total antioxidant capacity was assessed using a Cu2+ ion is conversion assay.

Test [6] has as its system AML-12 liver cells. Nature of the test: Cellular antioxidant (AOx) capacity, Cu2+ ion conversion assay, AML-12 liver cells. To be noted: 3 h treatment, vs DMSO control, CBD 95 ng/ml, VitA 1.2 μM, tributyrin 10 μM, beta-caryophyllene 100 ng/ml. Here is the method: as §1, §2, §3, §4, §5, §11
Where [7] appears, read: 12 h treatment with TNF-alpha (15 ng/mL).

Take `CCCC(=O)OCC(COC(=O)CCC)OC(=O)CCC` [tributyrin, Tributyrin]: the “Cellular glucose levels vs control” value (in test [1]; in the test on AML-12 liver cells [4]) was “increases cell glucose” each time. Moreover, the “PPARγ DNA binding activity vs control” value on PPARγ [2] (3 h treatment) is recorded as “significance values greater than control group”; on PPARγ [2] (setting [7]), “significance value greater than control group”; on PPARγ [3] (setting [7]) it was “values of greater significance than the control”. For the same molecule, the “SOD2 protein levels vs control” value in the test with SOD2 is “significance value less the control”. Moreover, the “NF-kB phosphorylation vs control” value in the test with phosphorylated p65/NF-κB (setting [7]) is listed as “significant values in reducing NF-kB phosphorylation”.
As to cannabidiol [CBD], the figures for the “Cellular AOx capacity vs control” value (in test [5] (setting [7]); in the test on AML-12 liver cells [6]) were “expressed significance value” and “expressed results with significance value”, respectively. Also, the “PPARγ DNA binding activity vs control” value at PPARγ [3] (setting [7]) is “values of greater significance than the control”. Moreover, in the test with SOD2, the “SOD2 protein levels vs control” value is reported as “significance value less the control”. Also, the “NF-kB phosphorylation vs control” value in the test with phosphorylated p65/NF-κB (3 h treatment) is “the only one with significant value among the ingredients”.
Consider `CCCCCCCCCCCCCCCC(=O)OC/C=C(C)/C=C/C=C(C)/C=C/C1=C(C)CCCC1(C)C` [vitamin A, Retinyl palmitate], for which the “Cellular AOx capacity vs control” value was “expressed significance values” in test [5] (3 h treatment, CBD 95 ng/ml, VitA 1.2 μM, tributyrin 10 μM, beta-caryophyllene 100 ng/ml) and “showed an antioxidant capacity” in the test with AML-12 liver cells [6]. For the same molecule, the “PPARγ DNA binding activity vs control” value at PPARγ [2] (3 h treatment) was “significance values greater than control group”; at PPARγ [3] (3 h treatment), “significance value greater than control group”.
Take `C=C1CC/C=C(\C)CC[C@@H]2[C@@H]1CC2(C)C` [BCP, beta-caryophyllene]: the “PPARγ DNA binding activity vs control” value at PPARγ [2] (3 h treatment) is on record as “significance values greater than control group”. In addition, the “NF-kB phosphorylation vs control” value in the test with phosphorylated p65/NF-κB (setting [7]) is “significant values in reducing NF-kB phosphorylation”.
